Data published in the supplement of paper PMC10307832.

Tests used:
Experiment in all cases: relative viability (nuclei count vs DMSO), 5 days (fraction); higher = more cells survive
FH535 + Decitabine = compound: CC1=C(C=CC(=C1)[N+](=O)[O-])NS(=O)(=O)C2=C(C=CC(=C2)Cl)Cl [FH535] + Nc1ncn([C@H]2C[C@H](O)[C@@H](CO)O2)c(=O)n1 [Decitabine] (partner 2 µM)
In short: (§1)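 Relative viability divides the nuclei count in treated wells by that in vehicle wells. Lung cancer cell lines were seeded in 1536-well plates, dosed by pin tool the next day, and fixed and stained after 5 days in one step with final 0.05% Triton X-100, 1% formaldehyde and 1 ug/ml Hoechst. Dosing was a single drug or a fixed anchor-drug dose plus five library-drug doses (not always all listed) in √10 steps, and values are medians of duplicate plates imaged at 4×.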

FH535 + Pemetrexed = compound: CC1=C(C=CC(=C1)[N+](=O)[O-])NS(=O)(=O)C2=C(C=CC(=C2)Cl)Cl [FH535] + Nc1nc2[nH]cc(CCc3ccc(C(=O)N[C@@H](CCC(=O)O)C(=O)O)cc3)c2c(=O)[nH]1 [Pemetrexed] (partner 0.2 µM)
In short: as §1

FH535 + Palbociclib = compound: CC1=C(C=CC(=C1)[N+](=O)[O-])NS(=O)(=O)C2=C(C=CC(=C2)Cl)Cl [FH535] + CC(=O)c1c(C)c2cnc(Nc3ccc(N4CCNCC4)cn3)nc2n(C2CCCC2)c1=O [Palbociclib] (partner 0.5 µM)
In short: as §1

FH535 + Foretinib = compound: CC1=C(C=CC(=C1)[N+](=O)[O-])NS(=O)(=O)C2=C(C=CC(=C2)Cl)Cl [FH535] + COc1cc2c(Oc3ccc(NC(=O)C4(C(=O)Nc5ccc(F)cc5)CC4)cc3F)ccnc2cc1OCCCN1CCOCC1 [Foretinib] (partner 0.25 µM)
In short: as §1

FH535 + Bortezomib = compound: CC1=C(C=CC(=C1)[N+](=O)[O-])NS(=O)(=O)C2=C(C=CC(=C2)Cl)Cl [FH535] + CC(C)C[C@H](NC(=O)[C@H](Cc1ccccc1)NC(=O)c1cnccn1)B(O)O [Bortezomib] (partner 0.002 µM)
In short: as §1

| Cell Line | relative viability (FH535 + Decitabine; first compound 0.04 µM) | relative viability (FH535 + Decitabine; first compound 0.1265 µM) | relative viability (FH535 + Decitabine; first compound 0.4 µM) | relative viability (FH535 + Decitabine; first compound 1.265 µM) | relative viability (FH535 + Pemetrexed; first compound 0.04 µM) | relative viability (FH535 + Pemetrexed; first compound 0.1265 µM) | relative viability (FH535 + Pemetrexed; first compound 0.4 µM) | relative viability (FH535 + Pemetrexed; first compound 1.265 µM) | relative viability (FH535 + Palbociclib; first compound 0.04 µM) | relative viability (FH535 + Palbociclib; first compound 0.1265 µM) | relative viability (FH535 + Palbociclib; first compound 0.4 µM) | relative viability (FH535 + Palbociclib; first compound 1.265 µM) | relative viability (FH535 + Foretinib; first compound 0.04 µM) | relative viability (FH535 + Foretinib; first compound 0.1265 µM) | relative viability (FH535 + Foretinib; first compound 0.4 µM) | relative viability (FH535 + Foretinib; first compound 1.265 µM) | relative viability (FH535 + Bortezomib; first compound 0.04 µM) | relative viability (FH535 + Bortezomib; first compound 0.1265 µM) | relative viability (FH535 + Bortezomib; first compound 0.4 µM) | relative viability (FH535 + Bortezomib; first compound 1.265 µM) |
| --- | --- | --- | --- | --- | --- | --- | --- | --- | --- | --- | --- | --- | --- | --- | --- | --- | --- | --- | --- | --- |
| LC-2-ad | 0.773 | 0.892 | 0.764 | 0.713 | 0.271 | 0.296 | 0.249 | 0.31 | 0.481 | 0.482 | 0.476 | 0.441 | 0.807 | 0.981 | 0.872 | 0.853 | 0.802 | 0.987 | 0.892 | 0.722 |
| LCLC-97TM1 | 0.247 | 0.273 | 0.247 | 0.187 | 0.155 | 0.173 | 0.156 | 0.135 | 0.199 | 0.203 | 0.235 | 0.135 | 0.854 | 0.949 | 1.03 | 0.679 | 0.705 | 0.545 | 0.561 | 0.273 |
| LCLC-103H | 0.672 | 0.787 | 0.718 | 0.503 | 0.456 | 0.48 | 0.467 | 0.52 | 0.509 | 0.426 | 0.493 | 0.416 | 0.789 | 0.755 | 0.776 | 0.551 | 0.948 | 1.01 | 0.939 | 1.01 |
| LOU-NH91 | 0.759 | 0.823 | 0.788 | 0.64 | 0.377 | 0.428 | 0.429 | 0.457 | 0.458 | 0.536 | 0.548 | 0.497 | 0.99 | 0.952 | 0.91 | 0.474 | 0.504 | 0.497 | 0.527 | 0.37 |
| LU99A | 0.789 | 0.944 | 0.841 | 0.794 | 0.148 | 0.171 | 0.199 | 0.239 | 0.35 | 0.436 | 0.432 | 0.342 | 0.706 | 0.865 | 0.736 | 0.761 | 0.726 | 1.01 | 1.05 | 0.948 |
| LXF-289 | 0.357 | 0.422 | 0.369 | 0.336 | 0.775 | 0.948 | 0.95 | 0.751 | 0.597 | 0.618 | 0.559 | 0.497 | 0.975 | 0.983 | 0.862 | 0.684 | 0.96 | 0.996 | 0.928 | 0.723 |
| NCI-H23 | 0.299 | 0.31 | 0.347 | 0.318 | 0.517 | 0.782 | 0.625 | 0.436 | 0.453 | 0.552 | 0.477 | 0.471 | 0.469 | 1.07 | 0.953 | 0.636 |  | 1.25 | 1.04 | 1.11 |
| NCI-H322M | 0.677 | 0.711 | 0.694 | 0.682 | 0.559 | 0.67 | 0.633 | 0.587 | 0.489 | 0.481 | 0.524 | 0.511 | 0.966 | 1 | 0.961 | 0.882 | 1.21 | 1.14 | 1.07 | 1.08 |
| NCI-H441 | 0.221 | 0.263 | 0.265 | 0.252 | 0.232 | 0.254 | 0.231 | 0.257 | 0.212 | 0.197 | 0.176 | 0.174 | 0.959 | 0.97 | 1.08 | 0.801 | 0.356 | 0.351 | 0.376 | 0.293 |
| NCI-H460 | 0.442 | 0.608 | 0.493 | 0.347 | 0.0603 | 0.0608 | 0.0625 | 0.0646 | 0.175 | 0.253 | 0.244 | 0.117 | 1.05 | 1.05 | 0.937 | 0.654 | 0.984 | 1.24 | 1.16 | 0.668 |
| NCI-H520 | 0.462 | 0.488 | 0.521 | 0.355 | 0.737 | 0.818 | 0.585 | 0.659 | 0.205 | 0.248 | 0.182 | 0.246 | 0.684 | 0.781 | 0.574 | 0.875 | 0.304 | 0.239 | 0.522 | 0.601 |
| NCI-H647 | 0.311 | 0.362 | 0.364 | 0.334 | 0.2 | 0.219 | 0.187 | 0.152 | 0.401 | 0.445 | 0.27 | 0.4 | 1.14 | 1.22 | 1.13 | 1.14 | 0.964 | 0.584 | 0.818 | 0.95 |
| NCI-H650 | 0.315 | 0.359 | 0.333 | 0.32 | 0.926 | 0.956 | 0.915 | 0.68 | 0.282 | 0.35 | 0.332 | 0.266 | 0.927 | 1.05 | 1.01 | 0.788 | 0.704 | 0.854 | 0.794 | 0.506 |
| NCI-H661 | 0.546 | 0.609 | 0.566 | 0.46 | 0.903 | 0.96 | 0.839 | 0.66 | 0.387 | 0.399 | 0.394 | 0.32 | 1.01 | 0.947 | 0.92 | 0.671 | 0.735 | 0.839 | 0.767 | 0.532 |
| NCI-H838 | 0.39 | 0.498 | 0.387 | 0.345 | 0.249 | 0.233 | 0.216 | 0.204 | 0.217 | 0.222 | 0.208 | 0.198 | 1.03 | 1.11 | 0.933 | 0.823 | 0.701 | 0.713 | 0.694 | 0.575 |
| NCI-H1355 | 0.334 | 0.325 | 0.368 | 0.36 | 1.03 | 1.05 | 0.984 | 0.91 | 0.394 | 0.436 | 0.4 | 0.324 | 1.03 | 1 | 0.904 | 0.582 | 1.09 | 1.2 | 1.15 | 1.03 |
| NCI-H1437 | 0.526 | 0.554 | 0.488 | 0.344 | 0.297 | 0.328 | 0.284 | 0.2 | 0.316 | 0.314 | 0.237 | 0.229 | 1.27 | 1.21 | 0.924 | 0.425 | 0.427 | 0.624 | 0.303 | 0.286 |
| NCI-H1650 | 0.323 | 0.427 | 0.46 | 0.442 | 0.408 | 0.371 | 0.355 | 0.306 | 0.325 | 0.323 | 0.303 | 0.212 | 0.966 | 1.28 | 1.01 | 0.825 | 0.198 | 0.195 | 0.184 | 0.2 |
| NCI-H1651 | 0.562 | 0.602 | 0.622 | 0.447 | 0.568 | 0.595 | 0.551 | 0.553 | 0.51 | 0.497 | 0.532 | 0.437 | 0.888 | 0.856 | 0.697 | 0.584 | 0.876 | 0.911 | 0.889 | 0.779 |
| NCI-H1666 | 0.718 | 0.686 | 0.733 | 0.626 | 0.838 | 0.834 | 0.948 | 0.794 | 0.674 | 0.639 | 0.614 | 0.631 | 0.919 | 0.975 | 0.913 | 0.8 | 0.725 | 0.882 | 0.705 | 0.625 |
| NCI-H1734 | 0.501 | 0.501 | 0.56 | 0.471 | 0.45 | 0.434 | 0.415 | 0.388 | 0.375 | 0.312 | 0.351 | 0.332 |  | 0.91 | 0.886 | 0.773 | 0.775 | 0.894 | 0.771 | 0.828 |
| NCI-H1755 | 0.667 | 0.725 | 0.679 | 0.699 | 0.406 | 0.42 | 0.342 | 0.413 | 0.428 | 0.413 | 0.463 | 0.448 | 0.862 | 0.894 | 0.874 | 0.854 | 0.982 | 0.951 | 0.793 | 0.817 |
| NCI-H1915 | 0.243 | 0.252 | 0.263 | 0.265 | 0.472 | 0.522 | 0.498 | 0.487 | 0.537 | 0.501 | 0.469 | 0.45 | 1.11 | 1.08 | 1.01 | 0.738 | 0.955 | 0.855 | 0.986 | 0.904 |
| NCI-H1975 | 0.375 | 0.383 | 0.351 | 0.365 | 0.286 | 0.309 | 0.277 | 0.275 | 0.627 | 0.403 | 0.481 | 0.474 | 0.889 | 0.973 | 0.936 | 0.789 | 0.312 | 0.381 | 0.374 | 0.338 |
| NCI-H1993 | 0.563 | 1.13 | 0.357 | 0.613 | 0.539 | 0.611 | 0.523 | 0.463 | 0.651 | 0.661 | 0.592 | 0.415 | 0.76 | 0.753 | 0.741 | 0.575 | 1.01 | 0.927 | 0.895 | 0.811 |
| NCI-H2009 | 0.339 | 0.363 | 0.434 | 0.391 | 1 | 1 | 0.955 | 0.836 | 0.243 | 0.174 | 0.229 | 0.215 | 1.27 | 1.22 | 1.18 | 0.929 | 0.92 | 0.984 | 0.896 | 0.58 |
